This test concerns HCV. Kind of test: anti-HCV activity assay in cell culture (HCV RNA by one-step quantitative RT-PCR). The test is classed as cell-based. As to conditions: compound at 10 μmol/L, Huh7.5 cells infected with HCV virus particles, cultured 96 hrs, HCV RNA in cells vs virus control group; for inhibition at 10 µM: Hepatitis C virus, Huh7.5, 96 h, read-out: percent inhibition (%). Here is the method:
The assay results of anti-HCV activity of the compound synthesized according to the present invention in cell culture are shown in Table 1, wherein the molecular weight is calculated by ChemBioDraw 12.0 software from the molecular structure of each compound.
100 μL Huh7.5 cells were seeded in 96-well cell culture plate to 1×10^5/mL density, cultured in an incubator at 37° C. under the condition of 5% CO2 and saturated humidity for 6 hrs. Huh7.5 cells were then infected by viral solution containing HCV virus particles, and solutions of compound of the present invention at a concentration of 10 μmol/L liquid were added respectively, cultured for further 96 hrs, and then total RNA was extracted from the cells. Amount of HCV RNA in cells was determined by one-step quantitative RT-PCR, and compared to RNA levels of the virus control group to calculate the inhibition rate of compounds on HCV.

`CN(C)CCCN(C)c1ccc(C#N)c(CN2CCN(c3ccc(C4CCCCC4)cc3)CC2)c1` [VI-32, 4-(N,N′,N′-trimethyl1,3-propanediamin-1-yl)-2-(4-p-cyclohexylphenylpiperazin-1-yl)methylbenzonitrile]: the “percent inhibition (%)” value is reported as 80%.
Same read-out and setting: for `Cc1ccc(NCc2cc(NCCCN(C)C)ccc2C#N)cc1` [Compound 26, 4-(N,N-dimethyl-1,3-propanediamin-1-yl)-2-(p-methylphenylamino)methylbenzonitrile] the value was 79%; for `COc1ccc(N2CCN(Cc3cc(N4C(C)CNCC4C)ccc3C#N)CC2)cc1` (stereo not shown) [VI-25], 67%.
Consider `Cc1ccc(N2CCN(Cc3cc(N(C)CN4CCCCC4)ccc3C#N)CC2)cc1` [VI-36, 4-((methyl)((piperidin-1-yl)-methyl)amino)-2-(4-p-methylphenylpiperazin-1-yl)methylbenzonitrile], for which the inhibition at 10 µM was 91%.
Still for that read-out and setting: for `COc1ccc(N(C)Cc2cc(N3CCN(c4ccccc4)CC3)ccc2C#N)cc1` [Compound 20, 4-(4-phenylpiperazin-1-yl)-2-((p-methoxyphenyl)(methyl)amino)methylbenzonitrile] the value was 70%; for `CCc1ccc(N2CCN(Cc3cc(N4CCN(C)CC4)ccc3C#N)CC2)cc1` [VI-14, 4-(4-methylpiperazin-1-yl)-2-(4-(4-ethylphenyl)piperazin-1-yl)methylbenzonitrile], 88%; for `COc1ccc(N2CCN(Cc3cc(N4CCNCC4)ccc3C#N)CC2)cc1` [VI-5, 4-(piperazin-1-yl)-2-(4-(4-methoxyphenyl)piperazin-1-yl)methylbenzonitrile], 79%.
For the compound `COc1ccc(NCc2cc(NCCN(C)C)ccc2C#N)cc1` [Compound 30, 4-(N,N-dimethyl-1,3-ethylenediamin-1-yl)-2-(p-methoxyphenylamino)methylbenzonitrile], the “percent inhibition (%)” value is 49%.
As to `Cc1ccc(N2CCN(Cc3cc(N4CCCC(N)C4)ccc3C#N)CC2)cc1` (stereo not shown) [VI-7, 4-(3-aminopiperidin-1-yl)-2-((4-(4-methylphenyl)piperazin-1-yl)methyl)benzonitrile], the inhibition at 10 µM turned out to be 71%.
Take `Cc1ccc(N(C)Cc2cc(N3CCN(C)CC3)ccc2C#N)cc1` [Compound 14, 4-(4-methylpiperazin-1-yl)-2-((p-methylphenyl)(methyl)amino)methylbenzonitrile]: the inhibition at 10 µM amounted to 97%.

These data come from patent US10252987B2, “Type of antiviral compound” (Institute of Medicinal Biotechnology, Chinese Academy of …, priority 2015, dated 2019).
